{
  "source": "patent US12491191B2",
  "about": "“Inhibition of interaction between OCT4 and MAPKAPK2 or DNA-PKcs to regulate c-MYC in cancer” (Texas Tech University System, priority 2019, dated 2025)",
  "key": {"[1]": {"test_system": "SMS-LHN (LHN) cells", "assay": "13-cisRA response of SMS-LHN neuroblastoma cells", "format": "cell-based, human", "settings": "5 μM, initial response", "source_text": "(§1) FIGS. 4A and 4B provide data showing that protein expression of c-MYC and MYCN in patient-derived neuroblastoma cell lines established from clinical samples collected at diagnosis (Dx) (FIG. 4A) and progressive disease 5 (PD) (FIG. 4B). CHLA-20 and SK—N-BE(2) were used as the positive controls for c-MYC and MYCN. FIG. 4C1 and FIG. 4C2 show dot plots quantitating immunoblotting (IB) data in FIGS. 4A and 4B. The values were normalized in two ways by the intensity of specific proteins in CHLA-20 for c-MYC or SK—N-BE(2) for MYCN and GAPDH. […] Cells were treated with 5 μM 13-cisRA for 14 days. […] Triplicate samples of 10,000 events were collected as single cells for the analyses. […] Relative quantitation (2^−ΔΔCT) was used for the analyses of mRNA expression. […] LDH (cytosolic protein) and Lamin A/C (nuclear protein) were used as fractionation quality controls.\nTo determine whether increased c-MYC in PD cell lines might be due to 13-cisRA treatment, the SMS-LHN (LHN) human neuroblastoma cell line (MYCN expression without genomic amplification) was treated with a clinically achievable concentration of 13-cisRA (5 μM), following the clinical dosing schedule used in high-risk patients (2 wks on, 2 wks off, x 6 cycles)."}, "[2]": {"test_system": "LHN-R cells", "assay": "13-cisRA response (neurite outgrowth, cell cycle) of resistant LHN-R cells", "format": "cell-based, human", "source_text": "as §1\nMetLuc enzymatic activity was measured. CMV immediate early promoter (pCMV IE) was a positive control. […] Left: Locations of the four sets of amplicons (a, b, c, and d) used to detect ChIP-enriched DNA fragments in the MYC enhancer region shown relative to the transcription start site (arrow). Right: PCR results detecting enriched fragments from ChIP assays of each of the 4 amplicons using ChIP-grade OCT4-1 and OCT4-2 antibodies or control normal rabbit IgG antibody. […] Cells were imaged by confocal microscopy. Blue: DAPI stained nucleus, Green: Phalloidin.\nFIGS. 6A-6G show OCT4 interacting proteins by protein identification (ID) and post-translational modification (PTM) and verification of the protein expression and the role of the interacting MK2 protein in 13-cisRA resistance. […] M: Marker, C: cytosolic, N: nuclear. For protein ID, the entire lanes were analyzed, and for PTM, the specific OCT4 band was subjected to mass spectrometry analyses. (Right) OCT4 protein sequence with PTM status identified by mass spectrometry. Underline: mass spectrometry coverage, Green: not phosphorylated or acetylated, Red: phosphorylated, acetylated, or undetermined. […] The direct interaction between OCT4 and MK2 is also confirmed by Ni-NTA pull down (Middle) or immunoprecipitation by FLAG (Right) using purified proteins. […] Cells stably transduced with non-targeting NT-shRNA or MAPKAPK2-shRNA were treated with vehicle control or 13-cisRA for 14 days. […] Cells stably transduced with non-targeting NT-shRNA or MAPKAPK2-shRNA were treated with vehicle control or 13-cisRA for 14 days. […] Cells stably transduced with non-targeting NT-shRNA (20±2% vs 18±3%, 15 p=0.17) or MAPKAPK2-shRNA (19±4% vs 5±1%, p<0.01) were treated with vehicle control or 13-cisRA for 14 days.\nIn LHN-R treated with 13-cisRA, mRNA and protein expression of c-MYC was increased while MYCN remained suppressed (FIGS. 4F and 4G).\nThus, Applicants focused on OCT4 and generated a stable clone of LHN-R with POU5F1 knockdown using a lentiviral vector system by transducing five different short hairpin RNA sequences (POU5F1-shRNA-1 to -5) to evaluate the effect of OCT4 on 13-cisRA resistance in neuroblastoma cells. POU5F1 knockdown decreased c-MYC and Cyclin A protein expression in LHN-R cells (FIG. 5G) relative to a non-targeted control shRNA (NT-shRNA)."}, "[3]": {"test_system": "small cell lung cancer cell lines", "assay": "Effect of combination with ABT-737 on c-MYC, cyclin A, PARP and caspase 3", "format": "cell-based, human", "settings": "combined with ABT-737", "protocol": "(§2) FIGS. 12A-12F illustrate the combination cytotoxic activity of D8 (i.e., narciclasine) and ABT-737 (a BCL-2 inhibitor) in two small cell lung cancer cell lines. The effect of the combination on c-MYC, pOCT4, OCT4, cyclin A, BCL-2 family of proteins, the cleavage of and caspase-3 and PARP were evaluated.\n(§3) Next, Applicants sought to check the activity of narciclasine when combined with other active agents. Venetoclax is currently indicated for chronic lymphocytic leukemia (CLL) and small lymphocytic lymphoma (SLL) patients. […] Thus, Applicants combined narciclasine with ABT-737/ABT-263, pan BCL-2 inhibitors or venetoclax (also known as ABT-199, a BCL-2 inhibitor) to examine the effect of the combination."}, "[4]": {"test_system": "NCI-H1048 xenograft", "assay": "In vivo xenograft activity, NCI-H1048", "parameters": "species or system mice", "source_text": "FIGS. 13A-13I show in vivo xenograft activity of M3814, a DNA-PK inhibitor, and ABT-263, a BCL-2 inhibitor, in mice carrying H1048, a human small cell lung cancer cell line.\nFIGS. 14A-14I show in vivo xenograft activity of D8 (narciclasine), a DNA-PK interaction inhibitor, and ABT-199, a BCL-2 inhibitor, in mice carrying H1048, a human small cell lung cancer cell line.\nIn vivo xenograft activity was examined for narciclasine or M3814 in combination with ABT-263 or ABT-199 in two xenograft models of small cell lung cancer, NCI-H1048 and NCI-H847."}, "[5]": {"test_system": "LHN-R, CHLA-20, COG-N-289, COG-N-334, COG-N-415 cells", "assay": "MK2 inhibitor effect on pOCT4, c-MYC, Cyclin A in neuroblastoma cell lines", "format": "cell-based, human", "protocol": "FIGS. 8A-8H show higher pMK2 and pOCT4^S111 in PD with high c-MYC. […] CHLA-20 was used as the control for the two membranes. […] The values were normalized in two ways by the expression of specific proteins in CHLA-20 and GAPDH. […] The expression of pOCT4^S111, OCT4, c-MYC, and Cyclin A was evaluated in subcellular fractions. […] The cells transduced with a doxycycline-inducible system to exogenously express OCT4WT or OCT4 S111A mutant, treated with doxycycline (Dox) for 48h followed by cycloheximide (CHX) incubation for various times. The whole cell lysates were subjected to sill immunoblotting.\nThus, pMK2-mediated increased c-MYC expression is not limited to tumors exposed to 13-cisRA. When S111 residue of OCT4 was mutated pOCT4^S111 were not detected by immunoblotting (FIG. 8G). […] MK2 inhibition by a small molecule MK2 inhibitor results in decreased pOCT4."}, "[6]": {"test_system": "small cell lung cancer cell lines", "assay": "Cytotoxicity in 16 small cell lung cancer cell lines", "format": "cell-based, human", "source_text": "FIGS. 10A-10E show cytotoxicity of D8 (i.e., narciclasine) and several DNA-PK inhibitors (NU7441, M3814, CC-115, AZD7648) in 16 small cell lung cancer cell lines with high (black and gray bars) or low (white bars) c-MYC expression.\nIn this Example, Applicants examined the cytotoxic activity of narciclasine (i.e., D8) in comparison to DNA-PK inhibitors that are commercially available (including NU7441, M3814, CC-115, and AZD7648) in 16 small cell lung cancer cell lines. […] The IC50 values for narciclasine was less than 100 nM in all cell lines except NCI-H889."}, "[7]": {"test_system": "NCI-H847 xenograft", "assay": "In vivo xenograft activity, NCI-H847", "settings": "NCI-H847 xenograft mice", "source_text": "FIGS. […]\nIn NCI-H847 xenograft mice, narciclasine as a single agent extended the event-free survival of mice compared with vehicle control."}, "[8]": {"test_system": "NCI-H1048 cell line", "assay": "Combination cytotoxicity with ABT-737 in NCI-H1048", "format": "cell-based, human", "settings": "combined with ABT-737, narciclasine 10 and 20 nM", "protocol": "as §2, §3"}, "[9]": {"test_system": "MOLM-14 and NB4 cells", "assay": "c-MYC expression and apoptosis in MOLM-14 and NB4", "format": "cell-based, human", "settings": "24 hours, 100 to 200 nM", "source_text": "FIG. 17 provides data illustrating the effect of D8 (narciclasine) in the expression of c-MYC and apoptosis in two human acute myelogenous leukemia, MOLM-14 and NB4.\nOf the six cell lines, two cell lines (MOLM-14 and NB4) were used to test the effect of narciclasine in c-MYC expression."}, "[10]": {"test_system": "NCI-H82, NCI-H847, NCI-H889, NCI-H417 cells", "assay": "c-MYC, pOCT4S93 and apoptosis markers in small cell lung cancer cell lines", "format": "cell-based, human", "settings": "0.3 to 2.5 μM, compared to vehicle control", "protocol": "FIG. 11 illustrates the effect of narciclasine in c-MYC protein expression. Narciclasine's effect on pOCT4S93 and OCT4 as well as apoptosis (measured by caspase and PARP cleavage) are also assessed in four small cell lung cancer cell lines with high c-MYC expression.\nCompared to vehicle control, narciclasine reduced c-MYC and pOCT4S93 and cleaved PARP and caspase 3 in four small cell lung cancer cell lines (NCI-H82, NCI-H847, NCI-H889, NCI-H417) at the concentration range between 0.3 and 2.5 μM. These experimental results, which are summarized in FIG. 11, indicate that narciclasine induces apoptosis as a cell death mechanism in small cell lung cancer cells."}, "[11]": {"test_system": "NCI-H847 cell line", "assay": "Combination cytotoxicity with ABT-737 in NCI-H847", "format": "cell-based, human", "settings": "combined with ABT-737, narciclasine 10 and 20 nM", "protocol": "as §2, §3"}, "[12]": {"settings": "single agent, compared with control, NCI-H1048 xenografted mice"}},
  "data": [
    {"compound": "CC1=C(/C=C/C(C)=C/C=C/C(C)=C\\C(=O)O)C(C)(C)CCC1", "note": "[13-cisRA, 13-cis-retinoic acid]", "values": [
      {"measurement": "response to 13-cisRA", "setting": "[1]", "value": "arrested proliferation, neurite outgrowth and decreased MYCN protein"},
      {"measurement": "neurite outgrowth and cell cycle arrest", "setting": "[2]; LHN-R after six cycles, 10 days of 13-cisRA treatment", "value": "did not show"},
      {"measurement": "cell cycle analysis (FIG. 6G)", "setting": "[2]; MAPKAPK2-shRNA LHN-R, 13-cisRA 14 days (vehicle 19±4%)", "value": "5±1", "unit": "%"},
      {"measurement": "cell cycle analysis (FIG. 6G)", "setting": "[2]; NT-shRNA LHN-R, 13-cisRA 14 days (vehicle 20±2%)", "value": "18±3", "unit": "%"},
      {"measurement": "S-phase content", "setting": "[2]; NT-shRNA-transduced LHN-R, 13-cisRA 14 days (vehicle 26±3%)", "value": "28±5", "unit": "%"},
      {"measurement": "S-phase content", "setting": "[2]; POU5F1 knockdown LHN-R, 13-cisRA 14 days (vehicle 23±4%)", "value": "11±1", "unit": "%"}
    ]},
    {"compound": "COc1ccc([C@@H](O)c2cc(-c3ncnc4cc(N5CCOCC5)ccc34)c(F)cc2Cl)nn1", "note": "[M3814, alpha S-[2-chloro-4-fluoro-5-[7-(4-morpholinyl)-4-quinazolinyl]phenyl]-6-methoxy-3-pyridazinem ethano, reference compound]", "values": [
      {"measurement": "c-MYC downregulation effect and cyclin A suppression effect", "setting": "[3]", "value": "higher"},
      {"measurement": "event-free survival", "setting": "[4]; combined with ABT-263, NCI-H1048 xenografted mice", "value": "significantly extended"},
      {"measurement": "event-free survival", "setting": "[4]; [12]", "value": "did not affect"}
    ]},
    {"compound": "Cc1ccc(-c2ccc3c(ccc4sc5c(c43)NC[C@@H](C)NC5=O)n2)cn1", "note": "[PF3644022]", "values": [
      {"measurement": "pOCT4, OCT4S111, c-MYC and Cyclin A", "setting": "[5]", "value": "decreased"}
    ]},
    {"compound": "O=C1N[C@@H]2C(=C[C@H](O)[C@@H](O)[C@H]2O)c2cc3c(c(O)c21)OCO3", "note": "[narciclasine]", "values": [
      {"measurement": "IC50", "setting": "[6]; all of 16 small cell lung cancer cell lines except NCI-H889", "value": "< 100", "unit": "nM"},
      {"measurement": "potency in cytotoxicity relative to the agents tested", "setting": "[6]; compared with NU7441, M3814, CC-115, AZD7648", "value": "highest potency"},
      {"measurement": "event-free survival", "setting": "[7]; combination with ABT-199, compared with the single agents", "value": "significantly longer"},
      {"measurement": "event-free survival", "setting": "[7]; single agent, compared with vehicle control", "value": "extended"},
      {"measurement": "c-MYC downregulation effect and cyclin A suppression effect", "setting": "[3]", "value": "higher"},
      {"measurement": "combination cytotoxic activity", "setting": "[8]", "value": "synergistic cytotoxic activity"},
      {"measurement": "PARP and caspase 3 cleavage", "setting": "[9]", "value": "observed"},
      {"measurement": "c-MYC expression", "setting": "[9]", "value": "substantially decreased"},
      {"measurement": "event-free survival", "setting": "[4]; combined with ABT-199, NCI-H1048 xenografted mice", "value": "significantly extended"},
      {"measurement": "event-free survival", "setting": "[4]; [12]", "value": "did not affect"},
      {"measurement": "PARP and caspase 3 cleavage", "setting": "[10]", "value": "cleaved"},
      {"measurement": "c-MYC and pOCT4S93 expression", "setting": "[10]", "value": "reduced"},
      {"measurement": "combination cytotoxic activity", "setting": "[11]", "value": "synergistic cytotoxic activity"}
    ]}
  ]
}
